Test [1] can be described thus: Cooling threshold (level at which cooling effect detected). Type of test: in vivo.
In another test the test system is tasting panel. Put plainly: Tasting panel test of perceived saltiness in salt-reduced broth. Particulars: for Level at which saltiness increase perceived / Effect on the perceived saltiness: salt-reduced broth, tasting panel; for Effect on the perceived saltiness: in words; for Upper threshold value for salt enhancement: stated in description. Type of test: in vivo. As for the experimental part: A variety of compounds (listed in the table above) was tested in a salt-reduced broth. The compounds concerned were simply added to samples of the broth in a variety of concentrations and stirred in. The samples were tested by their being submitted to a tasting panel, which recorded its perceptions as to which sample (and therefore at what level of compound) a perception of increased saltiness was observed. The results are recorded in the table in the specification above.

Structures are written as SMILES.

As for `CC1CCC(C(C)C)C(C(=O)Nc2ccc(CC#N)cc2)C1` (stereo not shown) [Compound 1, N-(4-cyanomethylphenyl) p-menthanecarboxamide], in test [1], the “Threshold level at which cooling effect detected - estimated” value (from here on “Threshold level”) is recorded as 0.08 ppm. In addition, in the test on tasting panel, the “Level at which saltiness increase perceived” value was determined as 0.005 ppm, the “Effect on the perceived saltiness” value is given as “considerably greater effect” and the “Upper threshold value for salt enhancement” value was found to be 0.005 ppm.

Regarding `CC(C)[C@@H]1CC[C@@H](C)C[C@H]1C(=O)NCCc1ccccn1` [Compound 2, (1R,2S,5R)-2-isopropyl-5-methyl-N-(2-(pyridin-2-yl)ethyl)cyclohexanecarboxamide], in test [1], the “Threshold level” value is listed as 0.08 ppm. Moreover, in the test with tasting panel, the “Level at which saltiness increase perceived” value was 0.005 ppm, the “Effect on the perceived saltiness” value is on record as “considerably greater effect” and the “Upper threshold value for salt enhancement” value turned out to be 0.005 ppm.

As for `CC1CCC(C(C)C)C(O)C1` (stereo not shown) [Menthol, menthol], the “Threshold level” value in test [1] is recorded as 1.5 ppm. Besides, the “Level at which saltiness increase perceived” value with tasting panel is reported as 0.05 ppm.

With `CCNC(=O)C1CC(C)CCC1C(C)C` (stereo not shown) [WS3], the “Threshold level” value in test [1] is listed as 1 ppm. Moreover, the “Level at which saltiness increase perceived” value with tasting panel came out at 0.05 ppm.

For `CNC(=O)C(C)(C(C)C)C(C)C` [WS23], the “Threshold level” value in test [1] is reported as 1.5 ppm. The “Level at which saltiness increase perceived” value with tasting panel is reported as 0.05 ppm.

Consider `CC1CCC(C(C)C)C(OC(=O)C(C)O)C1` (stereo not shown) [menthyl lactate], for which the “Threshold level” value in test [1] is listed as 0.8 ppm. Besides, the “Level at which saltiness increase perceived” value in the test with tasting panel was 0.05 ppm.

The record behind these values is patent US20080311266A1, “Salt Enhancement” (priority 2007, published 2008).
